{"source": "patent US20250381121A1", "about": "“COMPOSITION FOR PERSONAL CARE PRODUCTS” (VAGINAL BIOME SCIENCE, INC., priority 2024, published 2025)", "key": {"[1]": {"system": "herpes simplex virus (HSV-2)", "conditions": "cited from earlier work"}, "Lactobacillus crispatus": {"system": "Lactobacillus crispatus", "experiment": "Growth of Lactobacillus crispatus with UV-irradiated acemannan over 24 hours", "format": "cell-based", "description": "Growth media contained Dextrose-Free Sharpe (MRS) broth and Lactobacilli MRS Agar or an equivalent. Extract of irradiated aloe vera was further added to the MRS broth at 0.1 and 0.3% (w/v). A predetermined number of bacteria was added to each of the prepared medium and cultured at 37° C. under a suitable condition for the organism to be tested (anaerobic conditions for L. crispatus and L. gasseri). A small portion of the culture was removed at 2, 4, 6, 8, 12, 14, 16, 18, and 24 hours of culture. At each time point, collected samples containing the growing organisms are plated to quantify the live cell number.\nThe cell growth of Lactobacillus crispatus and Lactobacillus gasseri was determined by serial dilutions and plating to determine the bacterial counts at designated time points during the 24-h study period. Plates were cultured at 37° C. under a suitable condition for the organism to be tested (anaerobic conditions for L. crispatus and L. gasseri). Bacterial colonies were quantified at 0 and 16 hours after incubation.\nThe experiments were carried out using the method described above for EXAMPLE 4. Lactobacillus crispatus was cultured in the presence of varying concentrations (0.1%, 0.2%, 0.3%, 0.5%) of UV-irradiated acemannan or a negative control over a 24-hour period. Bacterial growth was quantified at 10 time points (0-24 hours) using log-scaled CFU/mL equivalents."}}, "note": "Like-named read-outs stand apart in the source and are kept apart here.", "data": [{"compound": "CCCCCCCCCCCC(=O)OCC(O)CO", "note": "(stereo not drawn) [glycerol monolaurate (GML), glycerol monolaurate]", "values": [{"measurement": "susceptibility to herpes simplex virus (HSV-2)", "setting": "[1]; 5% as a colloidal suspension in phosphate buffered saline, single exposure", "value": "markedly increased"}, {"measurement": "susceptibility to herpes simplex virus (HSV-2)", "setting": "[1]; 5% formulated in K-Y Warming Jelly, single exposure", "value": "markedly increased"}]}, {"compound": "CC(O)CO", "note": "(stereo not drawn) [propylene glycol]", "values": [{"measurement": "susceptibility to herpes simplex virus (HSV-2)", "setting": "[1]; in vivo", "value": "markedly increased"}]}, {"compound": "acemannan", "values": [{"measurement": "enhancement of L. crispatus growth compared with negative control", "setting": "Lactobacillus crispatus; 0.3% acemannan, at 10 hours (p<0.05)", "value": "significant enhancement of growth"}, {"measurement": "stimulation of L. crispatus growth over negative control", "setting": "Lactobacillus crispatus; 0.5% acemannan, significant at 6, 8, 10 and 18 hours (p<0.05)", "value": "most robust and consistent stimulation"}]}, {"compound": "polyethylene glycol [polyethylene glycol (PEG-8)]", "values": [{"measurement": "susceptibility to herpes simplex virus (HSV-2)", "setting": "[1]; in vivo", "value": "markedly increased"}]}]}
